# Reference: paper PMC5110648, “Coupled binding mechanism of three sodium ions and aspartate in the glutamate transporter homologue GltTk” (Nature Communications, 2016)
# Biological target: T1, GltTk (Thermococcus kodakarensis, UniProt Q5JID0)
# T1 construct: gene TK0986; C-terminally His8-tagged, pBAD24-derived plasmid, E. coli MC1061; purified in decyl maltoside; trimer
# Test: isothermal titration calorimetry; crystal structure […] Å
# Assay type: binding
# Conditions: eight Na+ concentrations (apparent affinity strongly Na+-dependent); 10 mM Hepes KOH pH 8, 100 mM KCl, 0.15% DM, 25 °C; transport substrate site
# T1 sequence (Q5JID0 entry or part of it): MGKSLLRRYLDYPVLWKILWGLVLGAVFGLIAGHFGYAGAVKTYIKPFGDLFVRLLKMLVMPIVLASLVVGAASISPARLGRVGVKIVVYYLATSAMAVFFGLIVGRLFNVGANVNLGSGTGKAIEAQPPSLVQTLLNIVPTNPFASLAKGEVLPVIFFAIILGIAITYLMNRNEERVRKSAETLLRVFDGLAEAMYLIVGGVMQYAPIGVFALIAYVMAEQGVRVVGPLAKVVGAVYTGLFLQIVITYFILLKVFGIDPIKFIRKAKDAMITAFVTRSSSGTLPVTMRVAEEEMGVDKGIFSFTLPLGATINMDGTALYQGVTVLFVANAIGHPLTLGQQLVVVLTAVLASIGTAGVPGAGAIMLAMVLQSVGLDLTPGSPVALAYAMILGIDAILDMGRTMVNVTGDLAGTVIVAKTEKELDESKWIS
smiles,measurement,value
N[C@@H](CC(=O)O)C(=O)O [L-aspartate],Apparent affinity,Apparent affinity of GltTk for aspartate as a function of Na^+ concentration
